Data as given in patent publication US20090149458A1, “PYRROLO[3,2-d]PYRIMIDINE COMPOUNDS AND THEIR USE AS PI3 KINASE AND mTOR KINASE INHIBITORS” (Wyeth, priority 2007, published 2009).
pIC50: −log10 of the molar value.

Legend:
Type in all cases: biochemical
human TOR = biological target: T1, human TOR (Homo sapiens, UniProt P42345); experiment: human TOR kinase assay with purified enzyme, DELFIA format; conditions: FLAG-TOR, 100 μM ATP, His6-S6K substrate;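 further: 2 h kinase reaction at room temperature, phosphorylation of S6K at T389 detected with a europium-labelled antibody after plate capture, DMSO vehicle as control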
T1 construct: FLAG

PI3 Kinase γ = PI3 Kinase γ (Homo sapiens, UniProt P48736); experiment: PI3K fluorescence polarization assay (PI3 Kinase γ); conditions: 20 uM PIP2, 25 uM ATP
Description: Buffers: Reaction Buffer: 20 mM HEPES pH7.5, 2 mM MgCl2, 0.05% CHAPS, and 0.01% bME (added fresh); STOP/detection Buffer: 100 mM HEPES pH7.5, 4 mM EDTA, 0.05% CHAPS. STOCKS: ATP 20 mM in H2O; PIP2 (diC8, Echelon cat# P-4508) 1 mM in H2O MW=856.5; GST-murine GRP 1.5 mg/ml in 17% glycerol; Red detector probe-Echelon (TAMRA) 2.5 uM. Plate: Nunc 384 well black polypropylene fluor. Plate.
Assay: The assay is run by putting 9.5 ul of freshly diluted enzyme (in “reaction buffer”) per well, then 0.5 ul of diluted drug or DMSO mixing. Then 10 ul of substrate is added to start the reaction. The mixture is incubated 30-60 minutes, room temp, then stopped with 20 ul of stop/detector mix. The substrate solution, is 40 μM PIP2 and 50 uM ATP in reaction buffer. Addition of 10 ul of substrate to each well starts the reaction. This is 20 uM PIP2, 25 uM ATP final in reaction.
Stop/detector mix: 10 nM TAMRA detector, 40 nM GST-GRP in STOP/detection buffer. To stop reaction: add 20 ul Stop/detector mix per well and mix well. Wait 90-110 minutes before reading plate. Plates are read on Perkin-Elmer Envision plate readers with filters for Tamra. Keep Red probe solutions dark. This procedure is adapted from Echelon Biosciences Inc procedure for their PI3-Kinase fluorescence polarization activity Assay kit Product number K-1100.

PI3 Kinase α = PI3 Kinase α (Homo sapiens, UniProt P42336); experiment: PI3K fluorescence polarization assay (PI3 Kinase α); conditions: 20 uM PIP2, 25 uM ATP;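 further: enzyme reaction with inhibitor or DMSO control, 30–60 min at room temperature, stopped by EDTA, then TAMRA detector with GST-GRP fluorescence polarization read after 90–110 min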
Sequence of PI3 Kinase α (P42336 whole entry): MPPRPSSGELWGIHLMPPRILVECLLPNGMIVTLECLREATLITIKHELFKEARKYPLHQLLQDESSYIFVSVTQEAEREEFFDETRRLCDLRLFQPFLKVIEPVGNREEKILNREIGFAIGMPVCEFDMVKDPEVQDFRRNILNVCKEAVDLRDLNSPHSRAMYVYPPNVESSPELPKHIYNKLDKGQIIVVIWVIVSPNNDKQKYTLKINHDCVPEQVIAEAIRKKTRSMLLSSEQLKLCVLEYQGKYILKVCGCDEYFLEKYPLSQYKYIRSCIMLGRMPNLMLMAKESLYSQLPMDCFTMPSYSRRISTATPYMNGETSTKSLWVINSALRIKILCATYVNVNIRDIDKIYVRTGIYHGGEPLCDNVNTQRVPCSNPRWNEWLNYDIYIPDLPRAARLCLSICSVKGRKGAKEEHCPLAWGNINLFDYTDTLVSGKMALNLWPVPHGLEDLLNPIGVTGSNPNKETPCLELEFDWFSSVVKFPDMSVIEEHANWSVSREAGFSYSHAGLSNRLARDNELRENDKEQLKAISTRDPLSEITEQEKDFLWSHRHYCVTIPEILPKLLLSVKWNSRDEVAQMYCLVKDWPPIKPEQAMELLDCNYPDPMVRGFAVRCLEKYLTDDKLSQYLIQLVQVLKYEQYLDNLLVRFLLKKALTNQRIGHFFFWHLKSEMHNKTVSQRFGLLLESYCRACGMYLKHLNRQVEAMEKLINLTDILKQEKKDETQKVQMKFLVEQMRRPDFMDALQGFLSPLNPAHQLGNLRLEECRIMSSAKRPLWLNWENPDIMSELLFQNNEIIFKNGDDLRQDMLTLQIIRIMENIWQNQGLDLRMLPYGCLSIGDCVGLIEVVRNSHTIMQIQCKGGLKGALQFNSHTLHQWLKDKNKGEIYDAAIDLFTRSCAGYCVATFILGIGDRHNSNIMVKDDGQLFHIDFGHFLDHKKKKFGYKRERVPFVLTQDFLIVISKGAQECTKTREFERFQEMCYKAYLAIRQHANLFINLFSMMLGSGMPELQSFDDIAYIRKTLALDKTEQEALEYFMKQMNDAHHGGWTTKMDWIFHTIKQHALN
Sequence of PI3 Kinase α (P27986 whole entry partner): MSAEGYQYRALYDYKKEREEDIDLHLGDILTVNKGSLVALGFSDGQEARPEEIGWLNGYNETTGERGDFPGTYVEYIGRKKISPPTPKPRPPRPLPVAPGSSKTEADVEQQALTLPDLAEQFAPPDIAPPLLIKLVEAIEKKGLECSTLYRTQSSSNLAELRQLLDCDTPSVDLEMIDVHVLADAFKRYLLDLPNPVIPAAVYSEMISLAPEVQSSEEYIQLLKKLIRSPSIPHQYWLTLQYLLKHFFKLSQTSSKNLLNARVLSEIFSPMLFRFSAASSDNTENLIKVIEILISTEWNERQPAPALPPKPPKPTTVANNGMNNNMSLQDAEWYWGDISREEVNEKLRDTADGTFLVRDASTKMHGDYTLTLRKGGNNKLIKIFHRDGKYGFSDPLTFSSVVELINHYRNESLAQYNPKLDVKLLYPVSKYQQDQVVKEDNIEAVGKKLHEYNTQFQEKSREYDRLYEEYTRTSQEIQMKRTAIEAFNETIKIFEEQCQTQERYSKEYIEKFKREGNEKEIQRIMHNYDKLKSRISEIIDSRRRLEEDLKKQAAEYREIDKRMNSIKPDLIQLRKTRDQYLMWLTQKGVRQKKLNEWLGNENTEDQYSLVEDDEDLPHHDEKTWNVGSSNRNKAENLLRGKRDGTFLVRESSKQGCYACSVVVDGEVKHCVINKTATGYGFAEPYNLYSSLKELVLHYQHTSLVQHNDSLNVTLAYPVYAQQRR

Sequence of PI3 Kinase γ (P48736 whole entry): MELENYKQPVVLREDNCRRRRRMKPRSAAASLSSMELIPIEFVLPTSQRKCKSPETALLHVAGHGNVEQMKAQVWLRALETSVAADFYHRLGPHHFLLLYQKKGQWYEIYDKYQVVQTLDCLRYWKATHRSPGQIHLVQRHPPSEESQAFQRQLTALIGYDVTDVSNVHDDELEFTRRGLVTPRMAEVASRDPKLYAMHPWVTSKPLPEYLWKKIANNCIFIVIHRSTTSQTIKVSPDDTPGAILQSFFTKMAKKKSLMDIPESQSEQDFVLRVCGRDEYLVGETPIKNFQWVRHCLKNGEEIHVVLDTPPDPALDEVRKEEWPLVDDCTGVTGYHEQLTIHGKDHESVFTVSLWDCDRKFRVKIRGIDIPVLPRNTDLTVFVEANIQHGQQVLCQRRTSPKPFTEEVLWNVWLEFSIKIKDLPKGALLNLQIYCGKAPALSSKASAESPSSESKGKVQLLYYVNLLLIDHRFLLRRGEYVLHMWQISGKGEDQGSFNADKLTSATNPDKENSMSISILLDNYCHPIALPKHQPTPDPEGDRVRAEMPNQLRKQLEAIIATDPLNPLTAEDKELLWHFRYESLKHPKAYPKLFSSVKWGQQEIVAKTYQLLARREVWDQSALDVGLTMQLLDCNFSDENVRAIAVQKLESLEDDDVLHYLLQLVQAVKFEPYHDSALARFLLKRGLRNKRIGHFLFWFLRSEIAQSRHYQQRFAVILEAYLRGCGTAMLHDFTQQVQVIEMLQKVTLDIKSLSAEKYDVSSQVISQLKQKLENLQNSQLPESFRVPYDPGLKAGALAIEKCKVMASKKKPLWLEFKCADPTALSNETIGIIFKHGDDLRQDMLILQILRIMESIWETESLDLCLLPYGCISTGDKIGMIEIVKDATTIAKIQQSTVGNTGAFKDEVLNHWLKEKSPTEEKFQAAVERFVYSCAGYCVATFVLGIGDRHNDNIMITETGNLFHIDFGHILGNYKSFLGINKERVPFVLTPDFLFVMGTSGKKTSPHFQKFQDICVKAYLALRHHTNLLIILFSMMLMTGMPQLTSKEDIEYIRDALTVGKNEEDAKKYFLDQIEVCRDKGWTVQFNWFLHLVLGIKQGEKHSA

Compound: Cc1cccc(-c2nc(N3CCOCC3)c3[nH]ccc3n2)c1 [Example 4, 2-(3-methylphenyl)-4-morpholin-4-yl-5H-pyrrolo[3,2-d]pyrimidine]
- pIC50 (human TOR): 5.30
- pIC50 (PI3 Kinase γ): < 5.06

Compound: OCc1cccc(-c2nc(N3CCOCC3)c3[nH]ccc3n2)c1 [Example 3, [3-(4-morpholin-4-yl-5H-pyrrolo[3,2-d]pyrimidin-2-yl)phenyl]methanol]
- pIC50 (PI3 Kinase γ): 6.04

Compound: CCN(CC)Cc1c[nH]c2c(N3CCOCC3)nc(-c3cccc(CO)c3)nc12 [Example 13]
- pIC50 (human TOR): 6.59
- pIC50 (PI3 Kinase α): 7.55
- pIC50 (PI3 Kinase γ): 6.09

Compound: CN1CCC(c2c[nH]c3c(N4CCOCC4)nc(-c4cccc(O)c4)nc23)CC1 [Example 30, 3-[7-(1-methylpiperidin-4-yl)-4-morpholin-4-yl-5H-pyrrolo[3,2-d]pyrimidin-2-yl]phenol]
- pIC50 (human TOR): 5.43
- pIC50 (PI3 Kinase α): 6.32
- pIC50 (PI3 Kinase γ): 6.08

Compound: Oc1cccc(-c2nc(N3CCOCC3)c3[nH]cc(C4CCN(Cc5ccc[nH]5)CC4)c3n2)c1 [Example 33, 3-{4-morpholin-4-yl-7-[1-(1H-pyrrol-2-ylmethyl)piperidin-4-yl]-5H-pyrrolo[3,2-d]pyrimidin-2-yl}phenol]
- pIC50 (human TOR): 6.02
- pIC50 (PI3 Kinase α): 6.95
- pIC50 (PI3 Kinase γ): 6.10

Compound: OCc1cccc(-c2nc(N3CCOCC3)c3[nH]cc(CN4CCNCC4)c3n2)c1 [Example 11, {3-[4-morpholin-4-yl-7-(piperazin-1-ylmethyl)-5H-pyrrolo[3,2-d]pyrimidin-2-yl]phenyl}methanol]
- pIC50 (human TOR): 5.37
- pIC50 (PI3 Kinase α): 7.52
- pIC50 (PI3 Kinase γ): 6.29

Compound: C1=C(c2c[nH]c3c(N4CCOCC4)nc(-c4cccc(OCc5ccccc5)c4)nc23)CCNC1 [Example 21, 2-[3-(benzyloxy)phenyl]-4-morpholin-4-yl-7-(1,2,3,6-tetrahydropyridin-4-yl)-5H-pyrrolo[3,2-d]pyrimidine]
- pIC50 (human TOR): 5.15
- pIC50 (PI3 Kinase α): < 5.00
- pIC50 (PI3 Kinase γ): < 5.00

Compound: Oc1cccc(-c2nc(N3CCOCC3)c3[nH]cc(C4CCN(Cc5ccco5)CC4)c3n2)c1 [Example 27, 3-{7-[1-(2-furylmethyl)piperidin-4-yl]-4-morpholin-4-yl-5H-pyrrolo[3,2-d]pyrimidin-2-yl}phenol]
- pIC50 (human TOR): 5.56
- pIC50 (PI3 Kinase α): 6.53
- pIC50 (PI3 Kinase γ): 5.79

Compound: Oc1cccc(-c2nc(N3CCOCC3)c3[nH]ccc3n2)c1 [Example 2, 3-(4-morpholin-4-yl-5H-pyrrolo[3,2-d]pyrimidin-2-yl)phenol]
- pIC50 (PI3 Kinase γ): 6.79

Compound: CN(C)Cc1c[nH]c2c(N3CCOCC3)nc(-c3cccc(O)c3)nc12 [Example 18, 3-{7-[(dimethylamino)methyl]-4-morpholin-4-yl-5H-pyrrolo[3,2-d]pyrimidin-2-yl}phenol]
- pIC50 (human TOR): 5.48
- pIC50 (PI3 Kinase α): 7.13
- pIC50 (PI3 Kinase γ): 5.94

Compound: CN1CCN(Cc2c[nH]c3c(N4CCOCC4)nc(-c4cccc(CO)c4)nc23)CC1 [Example 10]
- pIC50 (human TOR): 5.11
- pIC50 (PI3 Kinase α): 7.21
- pIC50 (PI3 Kinase γ): 5.69

Compound: CN(C)Cc1c[nH]c2c(N3CCOCC3)nc(-c3cccc(CO)c3)nc12 [Example 12]
- pIC50 (PI3 Kinase γ): 6.25

Compound: CCN(CC)Cc1c[nH]c2c(N3CCOCC3)nc(-c3cccc(O)c3)nc12 [Example 19, 3-{7-[(diethylamino)methyl]-4-morpholin-4-yl-5H-pyrrolo[3,2-d]pyrimidin-2-yl}phenol]
- pIC50 (human TOR): 5.51
- pIC50 (PI3 Kinase α): 6.88
- pIC50 (PI3 Kinase γ): 5.74

Compound: OCc1cccc(-c2nc(N3CCOCC3)c3[nH]cc(C4=CCNCC4)c3n2)c1 [Example 24, {3-[4-morpholin-4-yl-7-(1,2,3,6-tetrahydropyridin-4-yl)-5H-pyrrolo[3,2-d]pyrimidin-2-yl]phenyl}methanol]
- pIC50 (human TOR): 5.47
- pIC50 (PI3 Kinase α): 6.39
- pIC50 (PI3 Kinase γ): 5.92

Compound: Oc1cccc(-c2nc(N3CCOCC3)c3[nH]cc(C4CCNCC4)c3n2)c1 [Example 22, 3-(4-morpholin-4-yl-7-piperidin-4-yl-5H-pyrrolo[3,2-d]pyrimidin-2-yl)phenol]
- pIC50 (PI3 Kinase γ): 5.97

Compound: Oc1cccc(-c2nc(N3CCOCC3)c3[nH]cc(C4CCN(Cc5ccccc5)CC4)c3n2)c1 [Example 26, 3-[7-(1-benzylpiperidin-4-yl)-4-morpholin-4-yl-5H-pyrrolo[3,2-d]pyrimidin-2-yl]phenol]
- pIC50 (PI3 Kinase γ): 6.05

Compound: OCc1cccc(-c2nc(N3CCOCC3)c3[nH]cc(CN4CCN(Cc5ccccc5)CC4)c3n2)c1 [Example 15]
- pIC50 (human TOR): 5.24
- pIC50 (PI3 Kinase α): 6.62
- pIC50 (PI3 Kinase γ): 5.62

Compound: OCc1cccc(-c2nc(N3CCOCC3)c3[nH]cc(C4=CCN(Cc5ccccc5)CC4)c3n2)c1 [Example 25, {3-[7-(1-benzyl-1,2,3,6-tetrahydropyridin-4-yl)-4-morpholin-4-yl-5H-pyrrolo[3,2-d]pyrimidin-2-yl]phenyl}methanol]
- pIC50 (human TOR): 5.77
- pIC50 (PI3 Kinase α): 6.59
- pIC50 (PI3 Kinase γ): 5.55

Compound: OCc1cccc(-c2nc(N3CCOCC3)c3[nH]cc(CNCCN4CCCCC4)c3n2)c1 [Example 8, [3-(4-morpholin-4-yl-7-{[(2-piperidin-1-ylethyl)amino]methyl}-5H-pyrrolo[3,2-d]pyrimidin-2-yl)phenyl]methanol]
- pIC50 (human TOR): 4.95
- pIC50 (PI3 Kinase α): 7.14
- pIC50 (PI3 Kinase γ): 5.37

Compound: O=C(NCCCO)Nc1cccc(-c2nc(N3CCOCC3)c3[nH]ccc3n2)c1 [Example 41, 1-(3-hydroxypropyl)-3-[3-(4-morpholin-4-yl-5H-pyrrolo[3,2-d]pyrimidin-2-yl)phenyl]urea]
- pIC50 (human TOR): < 5.40
- pIC50 (PI3 Kinase α): 5.21
- pIC50 (PI3 Kinase γ): < 5.00

Compound: c1ccc(COc2cccc(-c3nc(N4CCOCC4)c4[nH]ccc4n3)c2)cc1 [Example 1, 2-[3-(benzyloxy)phenyl]-4-morpholin-4-yl-5H-pyrrolo[3,2-d]pyrimidine]
- pIC50 (human TOR): < 5.40
- pIC50 (PI3 Kinase α): 6.02
- pIC50 (PI3 Kinase γ): 6.35

Compound: Nc1cccc(-c2nc(N3CCOCC3)c3[nH]ccc3n2)c1 [Example 5, 3-(4-morpholin-4-yl-5H-pyrrolo[3,2-d]pyrimidin-2-yl)aniline]
- pIC50 (human TOR): 6.37
- pIC50 (PI3 Kinase γ): 5.10

Compound: Cn1ccc2nc(-c3cccc(CO)c3)nc(N3CCOCC3)c21 [Example 45, [3-(5-methyl-4-morpholin-4-yl-5H-pyrrolo[3,2-d]pyrimidin-2-yl)phenyl]methanol]
- pIC50 (human TOR): < 5.40
- pIC50 (PI3 Kinase γ): 5.09

Compound: Oc1cccc(-c2nc(N3CCOCC3)c3[nH]cc(C4CCN(Cc5ccc(Cl)nc5)CC4)c3n2)c1 [Example 35, 3-(7-{1-[(6-chloropyridin-3-yl)methyl]piperidin-4-yl}-4-morpholin-4-yl-5H-pyrrolo[3,2-d]pyrimidin-2-yl)phenol]
- pIC50 (human TOR): 6.13

Compound: CC(C)CN1CCC(c2c[nH]c3c(N4CCOCC4)nc(-c4cccc(O)c4)nc23)CC1 [Example 29, 3-[7-(1-isobutylpiperidin-4-yl)-4-morpholin-4-yl-5H-pyrrolo[3,2-d]pyrimidin-2-yl]phenol]
- pIC50 (human TOR): 5.50
- pIC50 (PI3 Kinase α): 6.30
- pIC50 (PI3 Kinase γ): 5.72

Compound: Oc1cccc(-c2nc(N3CCOCC3)c3[nH]cc(C4CCN(Cc5ccccn5)CC4)c3n2)c1 [Example 38, 3-{4-morpholin-4-yl-7-[1-(pyridin-2-ylmethyl)piperidin-4-yl]-5H-pyrrolo[3,2-d]pyrimidin-2-yl}phenol]
- pIC50 (human TOR): 6.22
- pIC50 (PI3 Kinase α): 6.85
- pIC50 (PI3 Kinase γ): 6.21

Compound: Oc1cccc(-c2nc(N3CCOCC3)c3[nH]cc(C4CCN(Cc5ccc(F)cc5Cl)CC4)c3n2)c1 [Example 34, 3-{7-[1-(2-chloro-4-fluorobenzyl)piperidin-4-yl]-4-morpholin-4-yl-5H-pyrrolo[3,2-d]pyrimidin-2-yl}phenol]
- pIC50 (human TOR): 6.34
- pIC50 (PI3 Kinase α): 6.92
- pIC50 (PI3 Kinase γ): 5.86

Compound: OCc1cccc(-c2nc(N3CCOCC3)c3[nH]cc(CNCc4cccnc4)c3n2)c1 [Example 9, [3-(4-morpholin-4-yl-7-{[(pyridin-3-ylmethyl)amino]methyl}-5H-pyrrolo[3,2-d]pyrimidin-2-yl)phenyl]methanol]
- pIC50 (human TOR): 5.26
- pIC50 (PI3 Kinase α): 7.13
- pIC50 (PI3 Kinase γ): 5.54

Compound: Oc1cccc(-c2nc(N3CCOCC3)c3[nH]cc(C4CCN(Cc5ccccc5F)CC4)c3n2)c1 [Example 32, 3-{7-[1-(2-fluorobenzyl)piperidin-4-yl]-4-morpholin-4-yl-5H-pyrrolo[3,2-d]pyrimidin-2-yl}phenol]
- pIC50 (human TOR): 6.48
- pIC50 (PI3 Kinase α): 6.78
- pIC50 (PI3 Kinase γ): 5.72

Compound: OCc1cccc(-c2nc(N3CCOCC3)c3[nH]cc(CN4CCCC4)c3n2)c1 [Example 7, {3-[4-morpholin-4-yl-7-(pyrrolidin-1-ylmethyl)-5H-pyrrolo[3,2-d]pyrimidin-2-yl]phenyl}methanol]
- pIC50 (PI3 Kinase γ): 5.95

Compound: Cn1cc(CN2CCCC2)c2nc(-c3cccc(CO)c3)nc(N3CCOCC3)c21 [Example 47, {3-[5-methyl-4-morpholin-4-yl-7-(pyrrolidin-1-ylmethyl)-5H-pyrrolo[3,2-d]pyrimidin-2-yl]phenyl}methanol]
- pIC50 (human TOR): < 5.40
- pIC50 (PI3 Kinase γ): < 5.00

Compound: Oc1cccc(-c2nc(N3CCOCC3)c3[nH]cc(C4CCN(Cc5ccc(F)cc5)CC4)c3n2)c1 [Example 23, 3-{7-[1-(4-fluorobenzyl)piperidin-4-yl]-4-morpholin-4-yl-5H-pyrrolo[3,2-d]pyrimidin-2-yl}phenol]
- pIC50 (PI3 Kinase γ): 5.97
